Values of other authors, collected in US20100028446A1, “TRANSPORT OF DRUGS VIA THE BLOOD-BRAIN BARRIER BY MEANS OF APOLIPOPROTEINS” (priority 2007, published 2010).

Conditions: loaded on hydrophilic-protein nanoparticles coupled with apolipoprotein E

Dalargin
transport across the blood-brain barrier: successfully transported across the blood-brain barrier
